The results in this text go back to patent publication US20150329558A1, “FUSED HETEROCYCLIC COMPOUNDS AS ION CHANNEL MODULATORS” (Gilead Sciences, Inc., priority 2011, published 2015).

Series [1] addresses wild-type human cardiac sodium channel, hNav1.5 (late INa) (Homo sapiens, UniProt Q14524). The series can be described thus: Late INa screening assay (QPatch whole cell patch clamp). Type of series: cell-based. To be noted: percent block of late INa, compound at 1 μM, 10 μM Tefluthrin, HEK293 hNav1.5; read-out: Late INa 1 μM. An outline of the steps:
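Compounds tested at 1 μM final in extracellular solution against tefluthrin (10 μM)-enhanced late current. Automated patch clamp (23-25° C) on HEK293 expressing alpha subunit alone: −120 mV holding, 250 ms depolarization to −20 mV every 10 s. Read-out is percent inhibition of mean current over 225–250 ms.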

Series [2] in a line: Microsomal stability assay, rat. The series is classed as in vitro ADME. The note with it: metabolic stability, rat liver microsomes 0.5 mg/mL, substrate 3 uM. Here is the method: (§1) The micorsomal stability assay is generally performed as follows. Format: 15 compounds (and 1 control verapamil) in 3 different species in duplicate sets Substrate: 3 uM Protein concentration: 0.5 mg/mL (for dog, rat, and human liver microsomes) Cofactor: 1×NADPH-Regenerating system Time-points: 2, 12, 25, 45, and 65 minutes [table] Sample preparation: 25 uL at each timepoint is added to plate with 225 uL quenching solution (50% MeOH, 25% ACN, 25% H2O, and 50 nM […]). After plates are vortexed, centrifuge for 30 minutes. Microsomal solutions: take 400 uL of 20 mg/mL microsomes and add to 13,680 uL 100 mM KPO4 buffer. Using an 8-channel, add 650 uL of this solution to the designated two columns on a short plate. The order should be dog microsomes in columns 1 and 2, rat microsomes in columns 3 and 4, and human microsomes in columns 5 and 6. Keep on ice before use. Place this plate in incubator 1 on the TECAN countertop.

The nature of series [3]: Microsomal stability assay, dog. Type of series: in vitro ADME. To be noted: metabolic stability, dog liver microsomes 0.5 mg/mL, substrate 3 uM. As for the experimental part:
as §1

Series [4] is described as follows: Microsomal stability assay, human. The series is classed as in vitro ADME. To be noted: metabolic stability, human liver microsomes 0.5 mg/mL, substrate 3 uM. As for the experimental part: as §1

The structures appear in SMILES notation.

Chain of wild-type human cardiac sodium channel, hNav1.5 (late INa) (Q14524 whole entry): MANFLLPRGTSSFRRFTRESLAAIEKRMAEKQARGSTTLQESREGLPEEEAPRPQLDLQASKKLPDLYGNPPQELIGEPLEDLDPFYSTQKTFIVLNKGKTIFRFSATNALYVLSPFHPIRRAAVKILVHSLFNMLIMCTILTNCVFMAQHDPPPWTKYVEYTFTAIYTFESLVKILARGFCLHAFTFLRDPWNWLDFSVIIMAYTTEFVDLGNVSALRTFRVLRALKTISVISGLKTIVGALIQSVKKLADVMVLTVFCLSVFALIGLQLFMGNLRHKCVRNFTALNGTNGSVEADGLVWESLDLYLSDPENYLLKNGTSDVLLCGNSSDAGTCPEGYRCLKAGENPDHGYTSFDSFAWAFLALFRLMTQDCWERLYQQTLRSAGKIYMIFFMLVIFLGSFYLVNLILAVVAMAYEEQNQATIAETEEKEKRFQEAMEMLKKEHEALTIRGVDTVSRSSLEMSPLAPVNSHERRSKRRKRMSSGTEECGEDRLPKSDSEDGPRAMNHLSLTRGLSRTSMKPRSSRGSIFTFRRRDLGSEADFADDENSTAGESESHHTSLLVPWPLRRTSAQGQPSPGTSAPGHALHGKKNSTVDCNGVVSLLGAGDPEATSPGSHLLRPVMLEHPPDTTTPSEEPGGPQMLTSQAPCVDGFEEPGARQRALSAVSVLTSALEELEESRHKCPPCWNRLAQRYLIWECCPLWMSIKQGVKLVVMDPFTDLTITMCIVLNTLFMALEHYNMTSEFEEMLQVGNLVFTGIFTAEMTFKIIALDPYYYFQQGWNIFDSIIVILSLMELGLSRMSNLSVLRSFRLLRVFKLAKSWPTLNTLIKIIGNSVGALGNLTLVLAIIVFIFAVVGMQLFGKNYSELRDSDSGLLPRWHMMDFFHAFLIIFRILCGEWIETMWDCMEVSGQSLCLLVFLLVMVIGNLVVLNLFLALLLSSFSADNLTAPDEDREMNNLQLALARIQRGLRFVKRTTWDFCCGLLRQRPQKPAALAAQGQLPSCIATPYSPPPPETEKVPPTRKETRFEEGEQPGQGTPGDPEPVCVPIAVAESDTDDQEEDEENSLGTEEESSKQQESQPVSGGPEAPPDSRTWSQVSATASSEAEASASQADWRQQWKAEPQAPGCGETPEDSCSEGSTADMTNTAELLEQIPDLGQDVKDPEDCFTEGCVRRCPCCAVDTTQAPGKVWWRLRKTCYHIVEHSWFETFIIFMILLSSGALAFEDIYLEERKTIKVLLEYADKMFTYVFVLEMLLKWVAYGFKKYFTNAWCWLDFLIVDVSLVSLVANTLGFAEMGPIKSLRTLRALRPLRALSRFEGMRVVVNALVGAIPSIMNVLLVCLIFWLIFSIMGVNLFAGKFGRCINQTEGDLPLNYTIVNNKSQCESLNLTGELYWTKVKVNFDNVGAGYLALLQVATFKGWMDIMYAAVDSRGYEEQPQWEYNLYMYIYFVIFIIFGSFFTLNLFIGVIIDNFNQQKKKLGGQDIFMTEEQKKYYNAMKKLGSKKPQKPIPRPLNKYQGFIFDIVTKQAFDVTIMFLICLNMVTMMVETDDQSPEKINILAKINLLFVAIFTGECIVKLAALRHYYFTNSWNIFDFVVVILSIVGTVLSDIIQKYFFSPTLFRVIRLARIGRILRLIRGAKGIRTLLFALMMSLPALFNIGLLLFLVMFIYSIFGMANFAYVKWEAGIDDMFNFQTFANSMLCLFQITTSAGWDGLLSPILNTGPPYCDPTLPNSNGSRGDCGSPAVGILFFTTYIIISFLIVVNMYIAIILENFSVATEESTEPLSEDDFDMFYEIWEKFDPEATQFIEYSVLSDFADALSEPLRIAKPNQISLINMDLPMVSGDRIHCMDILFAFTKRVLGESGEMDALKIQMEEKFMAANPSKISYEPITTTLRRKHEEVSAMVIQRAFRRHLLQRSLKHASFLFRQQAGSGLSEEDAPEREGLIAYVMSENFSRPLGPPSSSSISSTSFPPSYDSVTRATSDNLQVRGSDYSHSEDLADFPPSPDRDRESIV

In the case of `O=c1c2cc(-c3ccc(OC(F)(F)F)cc3)ccc2nnn1CCn1ccc(C(F)(F)F)n1` [II-52, 6-(4-(trifluoromethoxy)phenyl)-3-(2-(3-(trifluoromethyl)-1H-pyrazol-1-yl)ethyl)benzo[d][1,2,3]triazin-4(3H)-one], in series [1], the inhibition at 1 µM is 32%. Moreover, the MS Rat THalf in series [2] was 118 min. The same compound had an MS Dog THalf in series [3] of 76 min. For the same compound, the MS Human THalf in series [4] is 319 min.
`CC(c1nc(-c2ncccn2)no1)n1nnc2ccc(-c3ccc(OC(F)(F)F)cc3)cc2c1=O` (stereo not shown) [II-53, 3-(1-(3-(pyrimidin-2-yl)-1,2,4-oxadiazol-5-yl)ethyl)-6-(4-(trifluoromethoxy)phenyl)benzo[d][1,2,3]triazin-4(3H)-one]: the inhibition at 1 µM in series [1] turned out to be 29%. The compound also came in with an MS Rat THalf in series [2] greater than 395 min. In addition, in series [3], the MS Dog THalf worked out at 646 min. The compound further displayed an MS Human THalf in series [4] greater than 395 min.
Consider `CCc1nccn1CC1(Cn2nnc3ccc(-c4ccc(OC(F)(F)F)cc4)cc3c2=O)CC1` [II-57, 3-((1-((2-ethyl-1H-imidazol-1-yl)methyl)cyclopropyl)methyl)-6-(4-(trifluoromethoxy)phenyl)benzo[d][1,2,3]triazin-4(3H)-one], for which the inhibition at 1 µM in series [1] amounted to 38%. Also, the MS Rat THalf in series [2] was 2 min. Besides, the MS Dog THalf in series [3] was found to be 4 min. This compound showed an MS Human THalf in series [4] of 2 min.
As for `O=c1c2cc(-c3ccc(OC(F)(F)F)cc3)ccc2nnn1C1CCN(CC(F)(F)F)CC1` [II-71, 3-(1-(2,2,2-trifluoroethyl)piperidin-4-yl)-6-(4-(trifluoromethoxy)phenyl)benzo[d][1,2,3]triazin-4(3H)-one], in series [1], the inhibition at 1 µM came to 25%. In addition, in series [2], the MS Rat THalf stood at 94 min. In addition, the MS Dog THalf in series [3] came out at 78 min. In series [4], this compound came in with an MS Human THalf of 75 min.
Regarding `CCOC(=O)N1CCC(=O)C(n2nnc3ccc(-c4ccc(OC(F)(F)F)cc4)cc3c2=O)C1` (stereo not shown) [II-72, ethyl 4-oxo-3-(4-oxo-6-(4-(trifluoromethoxy)phenyl)benzo[d][1,2,3]triazin-3(4H)-yl)piperidine-1-carboxylate], the inhibition at 1 µM in series [1] worked out at 31%. For the same compound, the MS Rat THalf in series [2] stood at 8 min. The same compound yielded an MS Dog THalf in series [3] of 6 min. In series [4], this compound showed an MS Human THalf of 11 min.
As to `CC(C)(COc1ncccn1)Cn1nnc2ccc(-c3ccc(OC(F)(F)F)cc3)cc2c1=O` [II-84, 3-(2,2-dimethyl-3-(pyrimidin-2-yloxy)propyl)-6-(4-(trifluoromethoxy)phenyl)benzo[d][1,2,3]triazin-4(3H)-one], the inhibition at 1 µM in series [1] turned out to be 34%. The same compound returned an MS Rat THalf in series [2] of 51 min. The same compound had an MS Dog THalf in series [3] of 98 min. Besides, the MS Human THalf in series [4] worked out at 107 min.
Regarding `O=c1c2cc(-c3ccc(OC(F)(F)F)cc3)ccc2nnn1Cc1coc(C2CCC2)n1` [II-98, 3((2-cyclobutyloxazol-4-yl)methyl)-6-(4-(trifluoromethoxy)phenyl)benzo[d][1,2,3]triazin-4(3H)-one], the inhibition at 1 µM in series [1] was 41%. In series [2], the MS Rat THalf is 16 min. This compound showed an MS Dog THalf in series [3] of 34 min. Moreover, the MS Human THalf in series [4] was 31 min.
In the case of `Cc1nc(Cn2ncc3ccc(-c4ccc(OC(F)(F)F)cc4)cc3c2=O)no1` [III-3, 2-((5-methyl-1,2,4-oxadiazol-3-yl)methyl)-7-(4-(trifluoromethoxy)phenyl)phthalazin-1(2H)-one], in series [1], the inhibition at 1 µM turned out to be 42%. Further, the MS Rat THalf in series [2] is 104 min. In series [3], this compound registered an MS Dog THalf of 122 min. For the same compound, the MS Human THalf in series [4] is greater than 395 min.
`O=c1c2cc(-c3ccc(OC(F)(F)F)cc3)ccc2cnn1CCn1cccc1` [III-10, 2-(2-(1H-pyrrol-1-yl)ethyl)-7-(4-(trifluoromethoxy)phenyl)phthalazin-1(2H)-one]: in series [1], the inhibition at 1 µM amounted to 33%. The compound also registered an MS Rat THalf in series [2] of 18 min. For the same compound, the MS Dog THalf in series [3] was determined as 18 min. In series [4], the MS Human THalf was found to be 41 min.
Turning to `O=c1c2cc(-c3ccc(OC(F)(F)F)cc3)ccc2cnn1Cc1cccnc1Br` [III-14, 2-((2-bromopyridin-3-yl)methyl)-7-(4-(trifluoromethoxy)phenyl)phthalazin-1 (2H)-one], the inhibition at 1 µM in series [1] came to 39%. The same compound registered an MS Rat THalf in series [2] of 55 min. This compound gave an MS Dog THalf in series [3] of 77 min. Moreover, the MS Human THalf in series [4] is 251 min.
For `Cc1ccn(CCn2ncc3ccc(-c4ccc(OC(F)(F)F)cc4)cc3c2=O)n1` [III-17, 2-(2-(3-methyl-1H-pyrazol-1-yl)ethyl)-7-(4-(trifluoromethoxy)phenyl)phthalazin-1 (2H)-one], in that order: 49%, 22 min, 28 min and 34 min.
`Cc1cccc(CCn2ncc3ccc(-c4ccc(OC(F)(F)F)cc4)cc3c2=O)n1` [III-18, 2-(2-(6-methylpyridin-2-yl)ethyl)-7-(4-(trifluoromethoxy)phenyl)phthalazin-1 (2H)-one]: in series [1], the inhibition at 1 µM was found to be 37%. The MS Rat THalf in series [2] is 20 min. This compound registered an MS Dog THalf in series [3] of 23 min. This compound also displayed an MS Human THalf in series [4] of 25 min.
As for `O=c1c2cc(-c3ccc(OC(F)(F)F)cc3)ccc2cnn1Cc1cccnc1C1CC1` [III-20], the inhibition at 1 µM in series [1] was 28%. For the same compound, the MS Rat THalf in series [2] amounted to 54 min. For the same compound, the MS Dog THalf in series [3] turned out to be 61 min. The MS Human THalf in series [4] is 41 min.
Regarding `Cc1cc(C)nc(Cn2ncc3ccc(-c4ccc(OC(F)(F)F)cc4)cc3c2=O)n1` [III-22], the inhibition at 1 µM in series [1] stood at 35%. In series [2], this compound returned an MS Rat THalf of 86 min. Further, the MS Dog THalf in series [3] is 191 min. In series [4], this compound came in with an MS Human THalf of 252 min.
`Cc1cc(C)n(CCn2ncc3ccc(-c4ccc(OC(F)(F)F)cc4)cc3c2=O)n1` [III-24, 2-(2-(3,5-dimethyl-1H-pyrazol-1-yl)ethyl)-7-(4-(trifluoromethoxy)phenyl)phthalazin-1 (2H)-one]: the inhibition at 1 µM in series [1] came to 28%. Also, the MS Rat THalf in series [2] was 9 min. For the same compound, in series [3], the MS Dog THalf turned out to be 18 min. The compound further came in with an MS Human THalf in series [4] of 13 min.
Regarding `O=c1c2cc(-c3ccc(OC(F)(F)F)cc3)ccc2cnn1CCc1ccncn1` [III-36, 2-(2-(pyrimidin-4-yl)ethyl)-7-(4-(trifluoromethoxy)phenyl)phthalazin-1 (2H)-one], the inhibition at 1 µM in series [1] stood at 39%. The compound further showed an MS Rat THalf in series [2] of 32 min. In addition, the MS Dog THalf in series [3] was 31 min. This compound had an MS Human THalf in series [4] of 46 min.
`Cc1nonc1Cn1cnc2ccc(-c3ccc(OC(F)(F)F)cc3)cc2c1=O` [IV-3, 3-((4-methyl-1,2,5-oxadiazol-3-yl)methyl)-6-(4-(trifluoromethoxy)phenyl)quinazolin-4(3H)-one]: the inhibition at 1 µM in series [1] amounted to 37%. The compound further registered an MS Rat THalf in series [2] of 219 min. Also, in series [3], the MS Dog THalf is 54 min. Further, in series [4], the MS Human THalf was found to be 366 min.
For `O=C1c2cc(-c3ccc(OC(F)(F)F)cc3)ccc2CCN1Cc1ccccn1` [IX-2, 2-(pyridin-2-ylmethyl)-7-(4-(trifluoromethoxy)phenyl)-3,4-dihydroisoquinolin-1(2H)-one], in that order: 40%, 106 min, 88 min and 65 min.
For `O=C(NCc1ccco1)N1CCc2ccc(-c3ccc(C(F)(F)F)cc3)cc2C1` [IX-48, N-(furan-2-ylmethyl)-7-(4-(trifluoromethyl)phenyl)-3,4-dihydroisoquinoline-2(1H)-carboxamide], in that order: 31%, 37 min, 149 min and 80 min.
`CN(C(=O)N1CCc2ccc(-c3ccc(C(F)(F)F)cc3)cc2C1)c1ccccc1` [IX-50, N-methyl-N-phenyl-7-(4-(trifluoromethyl)phenyl)-3,4-dihydroisoquinoline-2(1H)-carboxamide]: the inhibition at 1 µM in series [1] worked out at 29%. Further, the MS Rat THalf in series [2] stood at 9 min. The MS Dog THalf in series [3] came out at 96 min. Further, the MS Human THalf in series [4] is 61 min.
Turning to `O=C(N1CCCC1)N1CCc2ccc(-c3ccc(C(F)(F)F)cc3)cc2C1` [IX-53, pyrrolidin-1-yl(7-(4-(trifluoromethyl)phenyl)-3,4-dihydroisoquinolin-2(1H)-yl)methanone], the inhibition at 1 µM in series [1] is 33%. In series [2], this compound showed an MS Rat THalf of 28 min. For the same compound, the MS Dog THalf in series [3] was 93 min. For the same compound, the MS Human THalf in series [4] worked out at 198 min.
`Cn1ccnc1C(=O)N1CCc2ccc(-c3ccc(C(F)(F)F)cc3)cc2C1` [IX-80, (1-methyl-1H-imidazol-2-yl)(7-(4-(trifluoromethyl)phenyl)-3,4-dihydroisoquinolin-2(1H)-yl)methanone]: in series [1], the inhibition at 1 µM was 40%. The MS Rat THalf in series [2] was 7 min. In series [3], this compound gave an MS Dog THalf of 197 min. The compound also gave an MS Human THalf in series [4] of 170 min.
